Results from ChEMBL document CHEMBL1201862, “PubChem BioAssay data set” (2004).
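Step 1: Grow cells in 96-well plates. Step 2: Expose to compound for 48 hours at 5 concentrations. Step 3: Interpolate endpoints linearly; if unreached, use highest concentration. Here, GI50 denotes the concentration required for 50% inhibition of growth.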 Calls of active or inactive are those of the source. Rule as the data show it: active = GI50 up to about 1.1 µM and inactive = higher.

Experiments:
Test in all cases: inhibition of tumour cell growth, NCI panel, 48 h
[1] = tested on: IGROV-1
[2] = tested on: NCI-H460
[3] = tested on: RPMI-8226
[4] = tested on: SR
[5] = tested on: U-251
[6] = tested on: HCC 2998
[7] = tested on: SF-268
[8] = tested on: COLO 205
[9] = tested on: A549
[10] = tested on: OVCAR-8
[11] = tested on: OVCAR-4
[12] = tested on: CAKI-1
[13] = tested on: OVCAR-5
[14] = tested on: Malme-3M
[15] = tested on: LOX IMVI
[16] = tested on: SNB-19
[17] = tested on: SK-MEL-5
[18] = tested on: SK-MEL-2

Measured: GI50

CN(C)/N=C(/c1nc2ccc([N+](=O)[O-])cc2nc1O)C(O)c1ccco1 (configuration not stated)
inactive: [1] 90.4 µM | [2] > 100 µM | [3] > 100 µM | [4] > 100 µM | [5] > 100 µM | [6] 53 µM | [7] 84.9 µM | [8] > 100 µM | [9] > 100 µM | [10] > 100 µM | [11] > 100 µM | [12] 48.1 µM | [13] > 100 µM | [14] > 100 µM | [15] 50 µM | [16] > 100 µM | [17] 70.1 µM

COc1cc(OC)c2c(c1)C(=O)C(CC(C)O)=CC2=O (configuration not stated)
inactive: [1] 18.2 µM | [2] 23.6 µM | [3] 11.5 µM | [4] 2 µM | [5] 17.9 µM | [6] 28.6 µM | [7] 18.2 µM | [18] 19.7 µM | [8] 18.6 µM | [9] 22.3 µM | [10] 15.7 µM | [11] 17.8 µM | [12] 20.1 µM | [13] 18.4 µM | [14] 22.7 µM | [15] 5.97 µM | [16] 17.7 µM | [17] 14.7 µM

CCc1cccc(C(C)CC)c1/N=C(/NC(=O)c1ccccc1C(=O)N/C(=N/c1c(CC)cccc1C(C)CC)SC)SC (configuration not stated)
inactive: [1] 38.7 µM | [2] 50.4 µM | [3] 30.1 µM | [4] 39.6 µM | [5] 26.2 µM | [6] 49.8 µM | [7] 72.3 µM | [18] 40.9 µM | [8] 40.6 µM | [9] 47.3 µM | [10] 59.2 µM | [11] 54.3 µM | [12] 42.2 µM | [13] 60.1 µM | [14] 48.5 µM | [15] 31.3 µM | [16] 49.8 µM

CC(=O)N1c2ccccc2N(C(C)=O)C1c1ccc(C2N(C(C)=O)c3ccccc3N2C(C)=O)[nH]1
inactive: [1] > 100 µM | [2] > 100 µM | [3] > 100 µM | [4] > 100 µM | [5] > 100 µM | [6] > 100 µM | [7] > 100 µM | [8] > 100 µM | [9] > 100 µM | [10] > 100 µM | [11] > 100 µM | [12] > 100 µM | [13] > 100 µM | [14] > 100 µM | [15] > 100 µM | [16] > 100 µM | [17] > 100 µM

Clc1ccc(OCc2nnc3n2N=C(c2ccc(Br)cc2)CS3)cc1
inactive: [2] 17.7 µM | [3] 30.3 µM | [4] > 100 µM | [5] 30.7 µM | [6] 84.5 µM | [18] 23.4 µM | [9] 25.5 µM | [10] 15.9 µM | [11] 7.89 µM | [12] > 10 µM | [13] > 100 µM | [14] 28 µM | [15] 3.74 µM | [16] 23.7 µM | [17] > 10 µM

C/C(=C\c1ccccc1)C(O)S(=O)(=O)O (configuration not stated)
inactive: [1] > 100 µM | [2] > 100 µM | [3] > 100 µM | [4] > 100 µM | [5] > 100 µM | [6] > 100 µM | [7] > 100 µM | [18] > 100 µM | [8] > 100 µM | [9] > 100 µM | [10] > 100 µM | [11] > 100 µM | [12] > 100 µM | [13] > 100 µM | [14] > 100 µM | [15] > 100 µM | [16] > 100 µM | [17] > 100 µM
